Measurements reported in US4981788A, “Novel acetylpolyamine amidohydrolase” (Kyowa Hakko Kogyo Co., Ltd., priority 1987, dated 1991).
“Also recorded” adds a separate entry of the source. Counter-ions that a name gives are not always drawn. Like-named read-outs stand apart in the source and are kept apart here.

Experiments:
[1] = molecular target: T1, acetylpolyamine amidohydrolase (the present enzyme, partially purified product) (Mycoplana ramosa, UniProt Q48935); test: Effects of inhibitors and metal ions, partially purified present enzyme; format: biochemical, Mycoplana bullata; details: for inhibition at 1000 µM: read-out: Relative activity in presence of inhibitor/metal ion, the present enzyme; for Inhibition of the present enzyme (in words): partially purified product
T1 construct: novel acetylpolyamine amidohydrolase of the present invention accumulated within the grown cells; made in house; host or cells: Mycoplana (natural producer; cells grown in culture)
T1 sequence (Q48935 1-341): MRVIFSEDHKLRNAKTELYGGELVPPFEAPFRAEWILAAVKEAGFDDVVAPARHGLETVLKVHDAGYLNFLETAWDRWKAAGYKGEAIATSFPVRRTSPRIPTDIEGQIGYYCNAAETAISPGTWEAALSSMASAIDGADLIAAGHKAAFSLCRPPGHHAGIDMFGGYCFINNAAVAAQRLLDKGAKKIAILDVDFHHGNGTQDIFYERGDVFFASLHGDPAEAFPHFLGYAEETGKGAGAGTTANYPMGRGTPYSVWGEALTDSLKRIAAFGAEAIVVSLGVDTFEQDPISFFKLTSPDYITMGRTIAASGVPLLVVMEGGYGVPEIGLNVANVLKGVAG
Procedure: Activity of the present enzyme (partially purified products) is measured according to the following procedure. That is, 0.1 ml of an enzyme solution is added to a reagent solution consisting of 1.5 ml of 0.1 M phosphate buffer (pH 7.0), 0.05 ml of 50 mM acetylpolyamine, 0.4 U of putrescine oxidase (when acetylputrescine, acetylcadaverine or acetylspermidine is used as substrate) or polyamine oxidase (when acetylspermidine or acetylspermine is used as substrate), 0.5 ml of 2.4 mM 4-aminoantipyrine, 0.5 ml of 42 mM phenol and 20 U of peroxidase. The mixture is incubated at 37° C., and the absorbance of quinoneimine pigment formed at 500 nm is measured.
The effects of various inhibitors and metal ions upon the present enzyme and the other known enzymes were examined using acetylputrescine as substrate.

[2] = test system: E3: Enzyme derived from Micrococcus luteus; details: cited from earlier work
[3] = molecular target: T2, acetylpolyamine amidohydrolase (the present enzyme, product purified to homogeneity) (Mycoplana ramosa, UniProt Q48935); test: Effects of various compounds upon enzyme activity, product purified to homogeneity (Method 1); format: biochemical, Mycoplana bullata; details: for activity at 100 µM: read-out: Relative Activity (%) at 0.1 mM
T2 construct: novel acetylpolyamine amidohydrolase of the present invention accumulated within the grown cells; made in house; host or cells: Mycoplana (natural producer)
T2 sequence (Q48935 1-341): T1 sequence (Q48935 1-341)
Text: [Method 1] (Standard assay)
In this standard method for measuring the activity of acetylpolyamine amidohydrolases, the enzyme being tested is allowed to react with acetylputrescine as substrate to produce putrescine, which is in turn oxidized with putrescine oxidase. Hydrogen peroxide thus formed is then subjected to oxidative condensation with phenol and 4-aminoantipyrine in the presence of horseradish peroxidase to form quinoneimine pigment. The rate of increase in the absorbance of a colored reaction solution at 500 nm is measured with a spectrophotometer.
(§1) The above reagents, (b) through (h), were put in a cuvette (d: 1.0 cm) and the mixture was preincubated at 37° C. for 2 minutes. The substrate solution (a) was then added and the resulting mixture was held at 37° C., absorbance at 500 nm was measured over a period of 3 to 5 minutes, and the change in absorbance per minute (ΔODsample) was determined from the linear portion of the plotted curve. For control, the same procedure as above was carried out, using distilled water as reference.
(§2) One unit of acetylpolyamine amidohydrolase is defined as its amount necessary to hydrolyze 1 μmole of acetylputrescine at 37° C. for one minute (or the amount necessary to form 0.5 μmole of quinoneimine pigment formed in the method for measuring the enzyme activity described above).
To 50 mM Tris-HCl buffer (pH 7.0) containing the present enzyme, was added each of the compounds being tested to a concentration of 0.1 mM or 1.0 mM. The mixture was incubated at 37° C. for 10 minutes, a sample solution was taken out, and its residual activity was measured according to the procedure described in [Method 1].

[4] = test system: E2: Enzyme derived from Arthrobacter sp.; details: concentration of 1mM; acetylputrescine as substrate; cited from earlier work
[5] = test system: E1: Enzyme derived from Streptomyces avellaneus; details: concentration of 1mM; acetylputrescine as substrate; cited from earlier work
[6] = test system: E2: Enzyme derived from Arthrobacter sp. (acetylpolyamine amidohydrolase); details: pH 7.0, cited from earlier work
[7] = molecular target: T2, acetylpolyamine amidohydrolase (the present enzyme, product purified to homogeneity); test: Enzyme activity on acetylpolyamine substrates, product purified to homogeneity (Method 2 / Method 3); format: biochemical, Mycoplana bullata; details: 37° C., phosphate and borate buffers, per substrate
Text: [Method 2] (Assay when acetylputrescine, acetylcadaverine, N^1 -acetylspermidine and N^8 -acetylspermidine are used as substrate:)
The acetylpolyamine can be hydrolyzed by the acetylpolyamine amidohydrolase, as described in [Method 1], and the corresponding free polyamine thus formed is then oxidized by putrescine oxidase. Putrescine oxidase derived from Micrococcus rubens is known to have an activity upon putrescine, cadaverine and spermidine [Adachi, et al., Agric. Biol. Chem, 30, 1202 (1966)]. […] The actual analytical procedure is as described below.
as §1, with “added,” for “added”, “incubated” for “held”, “C. Absorbance” for “C., absorbance”
as §2
[Method 3] (Assay when acetylspermine is used as substrate:)
Acetylspermine is hydrolyzed by the action of acetylpolyamine amidohydrolase into free form of spermine. The free form of spermine can be oxidized by a polyamine oxidase derived from Aspergillus terreus to produce hydrogen peroxide. Two molar equivalents of hydrogen peroxide is formed from one molar equivalent of spermine. Thus, the enzyme activity can be measured by quantitative determination of the hydrogen peroxide according to the method described above. However, since the above polyamine oxidase also acts upon acetylspermine, it is impossible to exactly measure the activity of acetylpolyamine amidohydrolase by the standard assay. […] The actual procedure is described below.
Reagents (b) through (d) given in item (1) were put in a test tube and the mixture was preincubated at 37° C. for 2 minutes. The substrate solution (a) was then added, the resulting mixture was incubated at 37° C. for 10 minutes, and the reaction was stopped by addition of the termination (e). A sample solution (100 μl) was taken from the reaction mixture and subjected to HPLC as described above to separate free form of spermine from acetylspermine. Generally, acetylspermine is eluted at a position of 38 minutes after the start of elution and free form of spermine at a position of 41 minutes after the start of elution. A sample solution (200 μl), taken from the eluate containing free form of spermine, was mixed in a cuvette with reagents (a) through (e) given in item (2) above, the mixture was incubated at 37° C. for 10 minutes, and the absorbance at 755 nm was measured. For control, the same procedure as above was carried out using 200 μl of Elunt A in place of the sample solution, as reference.
The concentration of free form of spermine in the reaction mixture can be determined from a calibration curve previously prepared on the basis of aqueous soluitons of free form of spermine with different concentrations. If the concentration of free form of spermine contained in 150 μl of the reaction mixture is taken as P (mM), then the potency (A) for 1 ml of the enzyme solution can be expressed by the following equation: […]
The activities upon acetylputrescine, acetylcadaverine, N^1 -acetylspermidine and N^8 -acetylspermidine were measured by [Method 2] in a phosphate buffer (pH 9.0) at a substrate concentration of 0.833 mM, and the activity upon acetyl-spermine was measured by [Method 3] under the same conditions. […] Km values, determined from the Lineweaver-Burk plot, are also listed in the same table. […]

[8] = test system: E1: Enzyme derived from Streptomyces avellaneus (acetylpolyamine amidohydrolase); details: cited from earlier work
[9] = compound 0.1 mM, 50 mM Tris-HCl pH 7.0, 37° C., 10 minutes, residual activity
[10] = compound 1.0 mM, 50 mM Tris-HCl pH 7.0, 37° C., 10 minutes, residual activity
[11] = concentration of 1mM, acetylputrescine as substrate, no addition = 100%
[12] = concentration of 1mM, acetylputrescine as substrate
[13] = compound 1.0 mM, 50 mM Tris-HCl pH 7.0, 37° C., 10 minutes, residual activity, read-out: Relative Activity (%) at 1.0 mM

Compound	Relative Activity (%) at 1.0 mM [3, 10] [%]	Relative activity in presence of inhibitor/metal ion, the present enzyme [1, 11] [%]	Relative activity in presence of inhibitor/metal ion, E3 [2, 12] [%]	Relative activity in presence of inhibitor/metal ion, E2 [4] [%]	Relative activity in presence of inhibitor/metal ion, E1 [5] [%]	further results
Oc1cccc2cccnc12 [8-Hydroxyquinoline]	–	–	–	–	–	Relative activity in presence of inhibitor/metal ion, the present enzyme [1]: 3; Relative activity in presence of inhibitor/metal ion, E3 [2]: 98; Inhibition of the present enzyme (in words) [3]: considerably inhibited; Relative Activity (%) at 0.1 mM ([3]; pH 7): 57%; Relative Activity (%) at 1.0 mM ([3]; pH 7): 66%
O=[N+]([O-])[O-].[Ag+] [AgNO3]	41	–	–	–	–	Relative Activity (%) at 0.1 mM [3, 9]: 107%; Inhibition of the present enzyme (in words) ([3]; purified to homogeneity): inhibited
[Cl-].[Cl-].[Co+2] [CoCl2]	105	–	–	–	–	–
[Cu+2] [Cu^2+]	–	99	26	–	–	–
CCN(CC)C(=S)S [DDC, Diethyldithiocarbamate]	–	–	–	–	–	inhibition at 1000 µM [1, 11]: 0%; activity at 100 µM [3, 9]: 93%; activity at 1000 µM [3, 13]: 94%
O=C(O)CN(CCN(CC(=O)O)CC(=O)O)CC(=O)O [EDTA · 2Na]	–	–	–	–	–	Inhibition of the present enzyme (in words) [3]: no inhibitory action; activity at 1000 µM ([3]; pH 7, read-out: Relative Activity (%) at 1.0 mM): 97%
NO [Hydroxylamine]	–	24	–	–	–	–
[Cl-].[Cl-].[Mg+2] [MgCl2]	85	–	–	–	–	Relative Activity (%) at 0.1 mM [3, 9]: 87%
[Mg+2] [Mg^2+]	–	97	99	112	104	Inhibition of the present enzyme (in words) ([3]; purified to homogeneity): inhibited
[Mn+2] [Mn^2+]	–	124	50	101	82	–
[N-]=[N+]=[N-].[Na+] [NaN3]	95	90	98	99	93	–
[Cl][Ni][Cl] [NiCl2]	90	–	–	–	–	–
[Ni+2] [Ni^2+]	–	81	33	55	3	Inhibition of the present enzyme (in words) [1]: hardly inhibited
O=S(=O)(F)Cc1ccccc1 [Phenylmethanesulfonyl fluoride]	90	–	–	–	–	Relative Activity (%) at 0.1 mM [3, 9]: 86%; Inhibition of the present enzyme (in words) ([3]; purified to homogeneity): slightly inhibited
NNC(N)=O [Semicarbazide hydrochloride]	–	–	–	–	–	activity at 100 µM [3, 9]: 103%; activity at 1000 µM [3, 13]: 91%
[Cl-].[Cl-].[Zn+2] [ZnCl2]	22	–	–	–	–	Relative Activity (%) at 0.1 mM [3, 9]: 1%
[Zn+2] [Zn^2+]	–	100	4	32	3	Inhibition of the present enzyme (in words) [1]: hardly inhibited; Inhibition of the present enzyme (in words) ([3]; purified to homogeneity): inhibited; also recorded: most remarkably
c1ccc(-c2ccccn2)nc1 [a,a'-Dipyridyl]	–	–	–	–	–	activity at 1000 µM [3, 13]: 92%
c1cnc2c(c1)ccc1cccnc12 [o-Phenanthroline]	–	–	33	94	14	inhibition at 1000 µM [1, 11]: 68%; activity at 1000 µM [3, 13]: 95%; Inhibition of the present enzyme (in words) ([3]; purified to homogeneity): no inhibitory action
O=C(O)c1cc[c]([Hg][Cl])cc1 [pCMB, -p(Chloromercuri)benzoic acid]	90	4	98	8	0	Relative Activity (%) at 0.1 mM [3, 9]: 107%; Inhibition of the present enzyme (in words) ([3]; purified to homogeneity): slightly inhibited
Acetylspermidine	–	–	–	–	–	Relative activity, E2 ([6]; activity against acetylputrescine defined as 100): 30%; Km [6]: 500 µM; Optimum pH [7]: 9; Relative activity, E1 ([8]; pH 7.0, activity against acetylputrescine defined as 100): 9.1%; Km ([8]; pH 7.0, read-out: Km, E1): 1100 µM; Relative activity, St. avellaneus enzyme ([8]; reported reference data in Table 5, acetylputrescine = 100): 9.1%; Km ([8]; reported reference data in Table 5, read-out: Km, St. avellaneus enzyme): 1100 µM
